Experimental data from paper PMC12657942, “Measurement and modeling of rizatriptan in supercritical CO2 for pharmaceutical processing” (Scientific Reports, 2025).
Values after ≈ are worked out from the molar mass of the structure shown.

Assay: Solubility of rizatriptan in supercritical CO2, static gravimetric method
Assay type: physicochemical
Method: A specialized high-pressure system is employed to measure the solubility of rizatriptan using gravimetric techniques in a supercritical CO2[6]. A 200 mL vessel capable of withstanding pressures up to 35 MPa and temperatures up to 423 K is prepared with leak-free seals, valves, and fittings. All valves and connectors were 1/8 inch in size. The system’s pressure and temperature sensors are calibrated for accuracy. Next, 2000 mg of rizatriptan powder is weighed precisely using an analytical balance with 0.01 mg of sensitivity. The powder is then compacted into 5-mm diameter tablets to ensure uniformity and structural integrity. The tablets are placed in a basket inside the vessel to maximize their exposure to SC-CO2. CO2 is introduced gradually using a high-precision pump (SC-1000, SUPEREX), with the pressure increased in 0.05 MPa increments to maintain stability. The pressure is monitored and held within ± 0.01 MPa. Temperature is controlled within ± 0.1 K using a thermocouple, and the mixture is stirred at 250 rpm to ensure uniformity. […] The pressure and temperature indicators are checked to ensure stability. After equilibration, the vessel is carefully depressurized to ambient conditions to halt dissolution without losing the sample. The remaining tablets are then removed and cleaned of residual CO2. If needed, they are dried in a desiccator. The undissolved drug is weighed using a high-precision balance. The experiment is replicated at least three times to calculate the mean solubility and standard deviation. The following formula was used to calculate the mass of dissolved rizatriptan:1
Include the molecular weights of rizatriptan ([…]) and CO2 (44.01 g/mol) in the mole fraction calculations.2 3 4 5
The measurements were conducted at four isotherms (308.2 K, 318.2 K, 328.2 K, and 338.2 K) and […] pressure points (12, 15, 18, 21, 24, 27, 30 MPa). Table 3 documents the experimental conditions, including temperature, pressure, SC-CO2 density, mole fraction, standard deviation, and solubility in grams per liter.

For CN(C)CCc1c[nH]c2ccc(Cn3cncn3)cc12 [Rizatriptan, Rizatriptan benzoate], the “mole fraction in SC-CO2” value (308.2 K, 12 MPa) was 0.09 × 10^−4, the “mole fraction in SC-CO2” value (308.2 K, 30 MPa) was 0.286 × 10^−4 and the “mole fraction in SC-CO2” value (328.2 K, 12 MPa) was 0.45 × 10^−5. For the same molecule, the “mole fraction in SC-CO2” value (328.2 K, 30 MPa) was 3.80 × 10^−5, the “mole fraction in SC-CO2” value (338.2 K, 12 MPa) was 0.024 × 10^−4 and the “mole fraction in SC-CO2” value (338.2 K, 30 MPa) was 0.419 × 10^−4. For the same molecule, the “mole fraction y in SC-CO2” value (338.2 K, 30 MPa) was 4.19 × 10^−5, the “Experimental mole fraction (y) in supercritical carbon dioxide, y × 10^4” value (“Experimental mole fraction (y)” for short) (T 308.0 K (text 308.2 K), P 12 MPa, ρCO2 768.52 kg/m^3) was 0.090 × 10^4 and the “Experimental mole fraction (y)” value (T 308.0 K (text 308.2 K), P 15 MPa, ρCO2 816.10 kg/m^3) was 0.121 × 10^4. For the same molecule, the “Experimental mole fraction (y)” value (T 308.0 K (text 308.2 K), P 18 MPa, ρCO2 816.10 kg/m^3) was 0.141 × 10^4, the “Experimental mole fraction (y)” value (T 308.0 K (text 308.2 K), P 21 MPa, ρCO2 874.55 kg/m^3) was 0.177 × 10^4 and the “Experimental mole fraction (y)” value (T 308.0 K (text 308.2 K), P 24 MPa, ρCO2 895.66 kg/m^3) was 0.227 × 10^4. For the same molecule, the “Experimental mole fraction (y)” value (T 308.0 K (text 308.2 K), P 27 MPa, ρCO2 913.70 kg/m^3) was 0.258 × 10^4, the “Experimental mole fraction (y)” value (T 308.0 K (text 308.2 K), P 30 MPa, ρCO2 929.85 kg/m^3) was 0.286 × 10^4 and the “Experimental mole fraction (y)” value (T 318.0 K (text 318.2 K), P 12 MPa, ρCO2 659.80 kg/m^3) was 0.069 × 10^4. The “Experimental mole fraction (y)” value (T 318.0 K (text 318.2 K), P 15 MPa, ρCO2 743.83 kg/m^3) was 0.126 × 10^4, the “Experimental mole fraction (y)” value (T 318.0 K (text 318.2 K), P 18 MPa, ρCO2 790.29 kg/m^3) was 0.162 × 10^4 and the “Experimental mole fraction (y)” value (T 318.0 K (text 318.2 K), P 21 MPa, ρCO2 823.80 kg/m^3) was 0.215 × 10^4. For the same molecule, the “Experimental mole fraction (y)” value (T 318.0 K (text 318.2 K), P 24 MPa, ρCO2 850.15 kg/m^3) was 0.281 × 10^4, the “Experimental mole fraction (y)” value (T 318.0 K (text 318.2 K), P 27 MPa, ρCO2 872.14 kg/m^3) was 0.322 × 10^4 and the “Experimental mole fraction (y)” value (T 318.0 K (text 318.2 K), P 30 MPa, ρCO2 890.90 kg/m^3) was 0.339 × 10^4. For the same molecule, the “Experimental mole fraction (y)” value (T 328.0 K (text 328.2 K), P 12 MPa, ρCO2 506.75 kg/m^3) was 0.045 × 10^4, the “Experimental mole fraction (y)” value (T 328.0 K (text 328.2 K), P 15 MPa, ρCO2 654.94 kg/m^3) was 0.099 × 10^4 and the “Experimental mole fraction (y)” value (T 328.0 K (text 328.2 K), P 18 MPa, ρCO2 724.13 kg/m^3) was 0.176 × 10^4. For the same molecule, the “Experimental mole fraction (y)” value (T 328.0 K (text 328.2 K), P 21 MPa, ρCO2 768.74 kg/m^3) was 0.241 × 10^4, the “Experimental mole fraction (y)” value (T 328.0 K (text 328.2 K), P 24 MPa, ρCO2 801.92 kg/m^3) was 0.302 × 10^4 and the “Experimental mole fraction (y)” value (T 328.0 K (text 328.2 K), P 27 MPa, ρCO2 828.51 kg/m^3) was 0.353 × 10^4. For the same molecule, the “Experimental mole fraction (y)” value (T 328.0 K (text 328.2 K), P 30 MPa, ρCO2 850.83 kg/m^3) was 0.380 × 10^4, the “Experimental mole fraction (y)” value (T 338.0 K (text 338.2 K), P 12 MPa, ρCO2 384.17 kg/m^3) was 0.024 × 10^4 and the “Experimental mole fraction (y)” value (T 338.0 K (text 338.2 K), P 15 MPa, ρCO2 555.33 kg/m^3) was 0.136 × 10^4. The “Experimental mole fraction (y)” value (T 338.0 K (text 338.2 K), P 18 MPa, ρCO2 651.28 kg/m^3) was 0.213 × 10^4, the “Experimental mole fraction (y)” value (T 338.0 K (text 338.2 K), P 21 MPa, ρCO2 709.59 kg/m^3) was 0.279 × 10^4 and the “Experimental mole fraction (y)” value (T 338.0 K (text 338.2 K), P 24 MPa, ρCO2 751.27 kg/m^3) was 0.334 × 10^4. The “Experimental mole fraction (y)” value (T 338.0 K (text 338.2 K), P 27 MPa, ρCO2 783.19 kg/m^3) was 0.388 × 10^4, the “Experimental mole fraction (y)” value (T 338.0 K (text 338.2 K), P 30 MPa, ρCO2 809.68 kg/m^3) was 0.419 × 10^4 and the crossover pressure (solubility isotherms 308.2–338.2 K in SC-CO2) was “approximately 15 MPa”. It also gave a solubility at 240 min (supercritical CO2, 308.2 K to 338.2 K, 12 to 30 MPa, read-out: solubility (dissolution concentration) in SC-CO2, range over all conditions) of 8 to 302 µg/mL (≈ 29.7 to 1120 µM).
